Read-outs that look alike come from different tables or passages of the source.
Tests used:
[1] = Bioassay of I-123-labeled compounds: organ distribution of activity 5 minutes after tail vein injection; type: in vivo, Female Sprague-Dawley rats; details: rat; for Percent Dose in Stomach / Ratio Brain/Blood / Ratio Heart/Blood: 5 min
Description: Bioassays were performed utilizing compounds from the foregoing examples labeled with I-123 in accordance with the method described in Example 18. Female Sprague-Dawley rats weighing approximately 150 g were anesthetized with sodium pentobarbital and were injected in a tail vein with from 0.05 to 1.0 mCi (in a volume of 0.2 to 0.5 ml) of the I-123-labeled compound. Two specimens were utilized for each test.
The animals were sacrificed at 5 minutes post injection, the tails discarded and the amount of activity in various organs determined. Each organ was counted at a standardized geometry with a thallium iodide-activated sodium iodide crystal scintillation counter adjusted for the 159 keV emission of I-123. The organs were also weighed to one thousandth of a gram and the activity calculated as a percent of administered dose per gram organ weight.
The ratio of brain-to-blood activity was calculated as a percent of administered dose per gram. The important determinations are the amount of activity in the brain and the brain/blood ratio. The amount of activity in the stomach is related to loss of the I-123-label. For comparative purposes, I-123 antipyrine was utilized as a standard.

[2] = I-123 labeled, cited from earlier work
[3] = in vivo, iv, Percent Dose/g. at 5 min., Blood
[4] = in vivo, iv, Percent Dose/g. at 5 min., Brain
[5] = in vivo, iv, Percent Dose/g. at 5 min., Heart
[6] = i.v., stomach activity is related to loss of the I-123 label
[7] = i.v., ratio of percent dose per gram

Percent Dose in Stomach ([1]; in vivo, iv) [Percent Dose]	Ratio Brain/Blood ([1]; in vivo, iv)	Ratio Heart/Blood ([1]; in vivo, iv)	tissue uptake at 5 min [1, 3] [%ID/g]	tissue uptake at 5 min [1, 4] [%ID/g]	tissue uptake at 5 min [1, 5] [%ID/g]	SMILES	Percent Dose in Stomach [1, 6] [Percent Dose]	concentration in the brain ([2]; literature)	in vivo deiodination ([2]; literature)	loss of the iodine label in the brain ([2]; prior art agent)	Ratio Brain/Blood [1, 7]	Ratio Heart/Blood [1, 7]	tissue uptake at 5 min ([1]; in vivo, iv, i.v. tail vein, 5 min post injection, blood, I-123 label, read-out: Percent Dose/g. at 5 min., Blood) [%ID/g]	tissue uptake at 5 min ([1]; in vivo, iv, i.v. tail vein, 5 min post injection, brain, I-123 label, read-out: Percent Dose/g. at 5 min., Brain) [%ID/g]	tissue uptake at 5 min ([1]; in vivo, iv, i.v. tail vein, 5 min post injection, heart, I-123 label, read-out: Percent Dose/g. at 5 min., Heart) [%ID/g]
0.93	0.22	0.72	2.15	0.48	1.54	CN(C)C(=O)c1ccccc1[123I] [Example 10, N, N-dimethyl-o-iodobenzamide]									
1.10	0.20	0.55	1.99	0.39	1.09	O=C(NNc1ccccc1)c1ccccc1[123I] [Example 13, o-iodobenzphenylhydrazide]									
0.94	1.21	1.28	0.86	1.04	1.1	CNC(=O)c1ccccc1[123I] [Example 1, N-methyl-o-iodobenzamide]									
0.93	1.28	1.32	0.69	0.88	0.91	NC(=O)c1ccccc1[123I] [Example 2, o-iodobenzamide]									
0.86	1.05	1.21	0.56	0.59	1.04	CCCCCCNC(=O)c1ccccc1[123I] [Example 3, N-hexyl-o-iodobenzamide]									
0.96	0.57	0.99	0.95	0.54	0.94	O=C(NO)c1ccccc1[123I] [Example 14, o-iodobenzohydramic acid]									
						Cc1c([123I])c(=O)n(-c2ccccc2)n1C [I^123 -iodoantipyrine, 4-iodoantipyrine]	2.32	suboptimal concentration in the brain	rapid in vivo deiodination	significant loss of the iodine label in the brain					
0.83	1.10	1.31	0.84	0.92	0.96	NC(=O)CNC(=O)c1ccccc1[123I] [Example 12, o-iodohippuramide]									
0.82	1.28	1.70	0.43	0.54	0.73	O=C(NCCc1ccccc1)c1ccccc1[123I] [Example 9, N-phenethyl-o-iodobenzamide]									
0.20	0.10	0.92	0.91	0.09	0.84	CCCCCCCCCCCCCCCCCCNC(=O)c1ccccc1[123I] [Example 5, N-octadecyl-o-iodobenzamide]									
0.82	0.87	1.43	0.69	0.6	0.99	Cc1cccc(C)c1NC(=O)c1ccccc1[123I] [Example 7, o-iodobenz-2,6-xylidide]									
						O=C(Nc1ccccc1)c1ccccc1[123I] [Example 6, o-iodobenzanilide]	1.66				0.90	2.34	0.93	0.84	2.18
0.88	1.00	2.26	0.68	0.68	1.54	O=C(NCc1ccccc1)c1ccccc1[123I] [Example 8, N-benzyl-o-iodobenzamide]									

Reference: patent publication US4279887A, “Amides useful as brain imaging agents” (Medi-Physics, Inc., priority 1978, dated 1981)
